According to PMC10313921, “A living ex vivo platform for functional, personalized brain cancer diagnosis” (Cell Reports Medicine, 2023):

Tests used:
[1] = system: MG-II patient tumor tissue (WHO grade II meningioma); test: Drug screening of uncultured patient tumor tissue MG-II on OBSCs; format: cell-based; conditions: Homo sapiens, dose required to kill 90% of the tumor
Experimental: (§1) Tumor cells were seeded onto OBSCs 2h after slicing as described above. One day after tumor seeding, six concentrations of each drug were diluted in the media underneath each culture insert, or XRad was applied using an X-Rad 320 Precision X-ray machine (n = 4 tumor foci per concentration; n ≥ 24 tumor foci per drug per cell line). Three days after treatment, the bioluminescence of live tumor cells was measured using an AMI optical imager (Spectral Instruments) and dose-response curves were generated. Tumor survival was normalized to day one tumor fluorescence and compared to an untreated control group.
To engraft onto OBSCs, the cryopreserved/thawed or fresh brain tumor tissue was filtered through a 100 μm cell strainer. Each 50 mg of tissue was transfected with 1mL mcherry-FLuc Lentivirus at 1.5e7 vg/ml with 1μL polybrene for 4h at 37°C. After incubation, the brain tumor tissue was washed with PBS three times to remove the residual virus and reconstituted in PBS with a final volume of 150 μL. Then the tissue solution was engrafted atop OBSCs at ∼0.5 mg tissue in 3 μL of PBS on each hemisphere of the slice. The OBSC engrafted with patient tumor tissue was incubated at 37°C with 5% CO2 and 95% humidity. The BSM was changed after 24h and subsequently every 3 days. Tumor treatment studies were executed as described above for tumor lines. The viability of the patient tissue was measured by an AMI optical imaging system with the addition of 1.5 mg/mL luciferin underneath the culture insert.
Several weighted parameters were factored into an overall drug sensitivity score.
(§2) For DSS parameters 1–6, therapeutic windows were calculated by comparing OBSC toxicity and tumor response at the doses where tumor kill passed through the DSS parameter (Table S1 and S3). For DSS parameter 7, the therapeutic window was calculated by comparing the slopes through the tumor EC50 and the OBSC tox EC50. For DSS parameter 8, the therapeutic window was calculated by comparing the areas under tumor kill and OBSC tox curves. Normalized therapeutic window ratios for DSS parameters 1–8 within each drug-tumor-OBSC interaction were calculated in the following manner: within each window, values ranged from +1 to −1, where values approaching +1 signify increasing tumor kill relative to normal tissue toxicity, and values approaching −1 indicate agents where tumors remained highly viable while toxicity to the normal OBSC tissue was elevated. DSS parameters 9–11 were determined based on the behavior of the tumor in response to the drug, as defined above.
All individually weighed parameters were added together to generate the DSS. Overall DSS from 0 to 100 signify increasing efficacy in tumor kill relative to OBSC toxicity, while scores from 0 to −100 describe scenarios in which tumors thrive more effectively than OBSCs for a given treatment. Dose-response values were calculated via linear interpolation of raw data, not from best-fit curve equations.

[2] = system: MB231Br (breast cancer metastasis to brain); test: Drug screening of MB231Br tumor foci on OBSCs; format: cell-based, human
[3] = system: PDIPG (low-passage pediatric patient-derived line); test: Drug screening of PDIPG tumor foci on OBSCs; format: cell-based, human
How it was run: (§3)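 Luciferase-expressing tumor cells seeded onto organotypic brain slice cultures; one day later treated with six drug concentrations in the medium, or X-irradiation. Bioluminescence read three days after treatment, normalised to day-one fluorescence and untreated controls. Dose-response values by linear interpolation; DSS combines weighted tumor-kill versus slice-toxicity parameters (−100 to 100).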

[4] = system: PIS patient tumor tissue (intracranial sarcoma); test: Drug screening of uncultured patient tumor tissue PIS on OBSCs; format: cell-based, human; conditions: Homo sapiens; PIS on OBSCs; dose required to kill 90% of the tumor
How it was run: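 Uncultured patient tumour tissue, transduced with mCherry-FLuc lentivirus, engrafted on organotypic brain slice cultures (OBSCs); six drug concentrations or X-ray dosing given one day after seeding, n = 4 foci per concentration. Bioluminescence with luciferin read three days post-treatment, normalised to day one and untreated controls; drug sensitivity score combines weighted therapeutic-window parameters versus OBSC toxicity (−100 to 100).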

[5] = system: MMG-II patient tumor tissue (WHO grade II meningioma, multiple tumors); test: Drug screening of uncultured patient tumor tissue MMG-II on OBSCs; format: cell-based; conditions: Homo sapiens, dose required to kill 90% of the tumor
Experimental: as §1
To engraft onto OBSCs, the cryopreserved/thawed or fresh brain tumor tissue was filtered through a 100 μm cell strainer. Each 50 mg of tissue was transfected with 1mL mcherry-FLuc Lentivirus at 1.5e7 vg/ml with 1μL polybrene for 4h at 37°C. After incubation, the brain tumor tissue was washed with PBS three times to remove the residual virus and reconstituted in PBS with a final volume of 150 μL. […] The viability of the patient tissue was measured by an AMI optical imaging system with the addition of 1.5 mg/mL luciferin underneath the culture insert. […]
as §2, with “DSS parameters 9–11 were determined based on the behavior of the tumor in response to the drug, as defined above.” left out

[6] = system: GBM8 (high-passage patient-derived GBM line); test: Drug screening of GBM8 tumor foci on OBSCs; format: cell-based, human
How it was run: as §3

[7] = system: U373KO (RAD18 knockout of U373WT via CRISPR); test: Drug screening of U373KO tumor foci on OBSCs; format: cell-based, human; conditions: U373 KO on OBSCs
How it was run: as §3

[8] = system: U373WT (wild-type established GBM line); test: Drug screening of U373WT tumor foci on OBSCs; format: cell-based, human; conditions: U373 WT on OBSCs
How it was run: as §3

[9] = system: MS21 (low-passage patient-derived GBM line); test: Drug screening of MS21 tumor foci on OBSCs; format: cell-based, human
How it was run: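 Bioluminescence viability readout, 3 d post-treatment, normalized to day-1 tumor fluorescence vs untreated; 6 drug concentrations or XRad, n = 4 foci per concentration. Drug sensitivity score sums weighted parameters comparing tumor kill with OBSC toxicity, ranging −100 to 100.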

[10] = system: LN229 (established GBM line); test: Drug screening of LN229 tumor foci on OBSCs; format: cell-based, human
How it was run: as §3

[11] = Homo sapiens, U373 MG, dose required to kill 50% of the tumor
[12] = Homo sapiens, U373 MG, dose required to kill 90% of the tumor
[13] = Homo sapiens, U373 MG, dosed day 1, survival via bioluminescence day 4, linear interpolation
[14] = area under the dose-response curve, trapezoidal rule
[15] = dose required to kill 10% of the tumor

## CC[C@]1(O)C[C@H]2CN(CCc3c([nH]c4ccccc34)[C@@](C(=O)OC)(c3cc4c(cc3OC)N(C=O)[C@H]3[C@@](O)(C(=O)OC)[C@H](OC(C)=O)[C@]5(CC)C=CCN6CC[C@]43[C@@H]65)C2)C1 [Vincristine]
[1]
  EC90: > 10 µM
[2]; Homo sapiens, MB231BR on OBSCs, dose required to kill 50% of the tumor
  EC50: > 10 µM
[2]; Homo sapiens, MB231BR on OBSCs, dose required to kill 90% of the tumor
  EC90: > 10 µM
[2]; Homo sapiens, MB231Br on OBSCs, dosed day 1, survival via bioluminescence day 4, linear interpolation
  IC50: > 10 µM
[2]; MB231BR on OBSCs
  Killing at highest dose: 7.00E-02 fraction of tumor population killed
[2]; MB231BR on OBSCs, area under the dose-response curve, trapezoidal rule
  AUC: 1.02E+01
[2]; MB231BR on OBSCs, slope through the EC50
  Slope: -1.89E-02
[3]; Homo sapiens
  EC90: > 10 µM
[3]; Homo sapiens, PDIPG on OBSCs, dose required to kill 50% of the tumor, read-out: EC50
  EC50: > 10 µM
[3]; Homo sapiens, PDIPG on OBSCs, dosed day 1, survival via bioluminescence day 4, linear interpolation, read-out: IC50
  IC50: > 10 µM
[3]; PDIPG on OBSCs
  Killing at highest dose: 4.86E-01 fraction of tumor population killed
[3]; PDIPG on OBSCs, area under the dose-response curve, trapezoidal rule
  AUC: 6.36E+00
[3]; PDIPG on OBSCs, dose required to kill 10% of the tumor
  EC10: 0.242 µM
[3]; PDIPG on OBSCs, dose required to kill 25% of the tumor
  EC25: 0.406 µM
[3]; PDIPG on OBSCs, slope through the EC50
  Slope: -2.32E-02
[4]
  EC90: > 10 µM
[5]
  EC90: > 10 µM
[6]; GBM8 on OBSCs
  Killing at highest dose: 1.00E+00 fraction of tumor population killed
[6]; GBM8 on OBSCs, area under the dose-response curve, trapezoidal rule
  AUC: 2.38E-01
[6]; GBM8 on OBSCs, dose required to kill 10% of the tumor
  EC10: 0.00435 µM
[6]; GBM8 on OBSCs, dose required to kill 25% of the tumor
  EC25: 0.0129 µM
[6]; GBM8 on OBSCs, dose required to kill 75% of the tumor
  EC75: 0.0843 µM
[6]; GBM8 on OBSCs, slope through the EC50
  Slope: -7.00E+00
[6]; Homo sapiens
  EC90: 0.26 µM
[6]; Homo sapiens, GBM8 on OBSCs, dose required to kill 50% of the tumor, read-out: EC50
  EC50: 0.0486 µM
[6]; Homo sapiens, GBM8 on OBSCs, dosed day 1, survival via bioluminescence day 4, linear interpolation, read-out: IC50
  IC50: 0.05 µM
[7]; [11]
  EC50: > 10 µM
[7]; [12]
  EC90: > 10 µM
[7]; [13]
  IC50: > 10 µM
[7]
  Killing at highest dose: -7.40E-01 fraction of tumor population killed
[7]; [14]
  AUC: 1.89E+01
[8]; [11]
  EC50: > 10 µM
[8]; [12]
  EC90: > 10 µM
[8]; [13]
  IC50: > 10 µM
[8]
  Killing at highest dose: -6.60E-01 fraction of tumor population killed
[8]; [14]
  AUC: 1.36E+01
[8]; [15]
  EC10: 0.82 µM
[8]; slope through the EC50
  Slope: 5.78E-02
[9]; Homo sapiens
  EC90: > 10 µM
[9]; Homo sapiens, MS21 on OBSCs, dose required to kill 50% of the tumor, read-out: EC50
  EC50: 4.6 µM
[9]; Homo sapiens, MS21 on OBSCs, dosed day 1, survival via bioluminescence day 4, linear interpolation, read-out: IC50
  IC50: 4.6 µM
[9]; MS21 on OBSCs
  Killing at highest dose: 5.30E-01 fraction of tumor population killed
[9]; MS21 on OBSCs, area under the dose-response curve, trapezoidal rule
  AUC: 5.22E+00
[9]; MS21 on OBSCs, dose required to kill 10% of the tumor
  EC10: 0.00526 µM
[9]; MS21 on OBSCs, dose required to kill 25% of the tumor
  EC25: 0.172 µM
[9]; MS21 on OBSCs, slope through the EC50
  Slope: -5.56E-03
[10]
  Killing at highest dose: 4.10E-01 fraction of tumor population killed
[10]; Homo sapiens, LN-229, dose required to kill 50% of the tumor
  EC50: > 10 µM
[10]; Homo sapiens, LN-229, dose required to kill 90% of the tumor
  EC90: > 10 µM
[10]; Homo sapiens, LN-229, dosed day 1, survival via bioluminescence day 4, linear interpolation
  IC50: > 10 µM
[10]; [14]
  AUC: 6.37E+00
[10]; [15]
  EC10: 0.00667 µM
[10]; dose required to kill 25% of the tumor
  EC25: 0.418 µM
[10]; slope through the EC50
  Slope: -8.89E-03
